Source: patent publication US20200360520A1, “USE OF RIFAMYCIN-QUINOLIZIDONE COUPLING MOLECULE” (priority 2019, published 2020)
Converted amounts (≈) assume the structure as drawn. Like-named read-outs stand apart in the source and are kept apart here.

Key:
Type in all cases: cell-based
Mycobacterium abscessus [1] = test: MBC test (plating on agar, CFU count)
[2] = tested on: Mycobacterium massiliense; test: MIC by micro broth dilution method (resazurin microtiter assay); conditions: Mycobacteroides abscessus, MH Culture Medium, read-out: Minimum Inhibitory Concentration (MIC)
[3] = tested on: Mycobacterium intracellulare; test: as above; conditions: for MIC: Mycobacterium intracellulare, MH Culture Medium, read-out: Minimum Inhibitory Concentration (MIC)
Mycobacterium kansasii [4] = test: as above; conditions: for MIC: Mycobacterium kansasii, read-out: Minimum Inhibitory Concentration (MIC)
Mycobacterium abscessus [5] = test: as above; conditions: Mycobacteroides abscessus, read-out: Minimum Inhibitory Concentration (MIC)
Mycobacterium kansasii [6] = test: MBC test (plating on agar, CFU count); conditions: for MBC: Mycobacterium kansasii, read-out: Minimum Bactericidal Concentration (MBC)
Mycodacterium chelonei = test: MIC by micro broth dilution method (resazurin microtiter assay); conditions: MH Culture Medium; Chelonei (standard strain); read-out: Minimum Inhibitory Concentration (MIC)
Mycobacterium avium [7] = test: MBC test (plating on agar, CFU count); conditions: for MBC: Mycobacterium avium, read-out: Minimum Bactericidal Concentration (MBC)
Mycobacterium fortuitum = test: MIC by micro broth dilution method (resazurin microtiter assay); conditions: Mycolicibacterium fortuitum, MH Culture Medium, read-out: Minimum Inhibitory Concentration (MIC)
Mycobacterium avium [8] = test: as above; conditions: read-out: Minimum Inhibitory Concentration (MIC)

MIC ([2]; clinically isolated strain Massiliense (D10)): > 64 mg/L
MIC ([2]; clinically isolated strain Massiliense (D14)): > 64 mg/L
MIC ([2]; clinically isolated strain Massiliense (D18)): > 64 mg/L
MIC ([3]; Intracellulare (standard strain)): 0.5 mg/L (≈ 0.415 µM)
MIC ([3]; clinically isolated strain Intracellulare (S90)): 64 mg/L (≈ 53.2 µM)
MIC ([3]; clinically isolated strain Intracellulare (S261)): 64 mg/L (≈ 53.2 µM)
MIC ([3]; clinically isolated strain Intracellulare (S269)): > 64 mg/L
MIC ([3]; clinically isolated strain Intracellulare (S290)): 64 mg/L (≈ 53.2 µM)
MIC ([3]; clinically isolated strain Intracellulare (S291)): 64 mg/L (≈ 53.2 µM)
MIC ([3]; clinically isolated strain Intracellulare (S298)): 64 mg/L (≈ 53.2 µM)
MIC ([3]; clinically isolated strain Intracellulare (S541)): 32 mg/L (≈ 26.6 µM)
MIC ([3]; clinically isolated strain Intracellulare (S623)): 64 mg/L (≈ 53.2 µM)
MIC ([3]; clinically isolated strain Intracellulare (ZPS)): 32 mg/L (≈ 26.6 µM)
MIC ([3]; clinically isolated strain intracellulare (S442)): 32 mg/L (≈ 26.6 µM)
MIC (Mycobacterium kansasii [4]; 7H9 Broth): 2 mg/L (≈ 1.66 µM)
MIC (Mycobacterium kansasii [4]; MH Broth): 2 mg/L (≈ 1.66 µM)
MIC (Mycobacterium kansasii [4]; MH Culture Medium, Kansasii (standard strain)): 0.0625 mg/L (≈ 0.0519 µM)
MIC (Mycobacterium kansasii [4]; MH Culture Medium, clinically isolated strain Kansasii (S9)): 0.25 mg/L (≈ 0.208 µM)
MIC (Mycobacterium kansasii [4]; MH Culture Medium, clinically isolated strain Kansasii (S199)): 0.0625 mg/L (≈ 0.0519 µM)
MIC (Mycobacterium kansasii [4]; MH Culture Medium, clinically isolated strain Kansasii (S520)): 0.0625 mg/L (≈ 0.0519 µM)
MIC (Mycobacterium kansasii [4]; MH Culture Medium, clinically isolated strain Kansasii (S609)): 0.0625 mg/L (≈ 0.0519 µM)
MIC (Mycobacterium abscessus [5]; 7H9 Broth): 1 mg/L (≈ 0.831 µM)
MIC (Mycobacterium abscessus [5]; MH Broth): 1 mg/L (≈ 0.831 µM)
MIC (Mycodacterium chelonei): 64 mg/L (≈ 53.2 µM)
MIC (Mycobacterium fortuitum; Fortuitum (standard strain)): 64 mg/L (≈ 53.2 µM)
MIC (Mycobacterium fortuitum; clinically isolated strain Fortuitum (S103)): > 64 mg/L
MIC (Mycobacterium fortuitum; clinically isolated strain Fortuitum (S111)): > 64 mg/L
MIC (Mycobacterium avium [8]; 7H9 Broth, Mycobacterium avium Rough): > 64 mg/L
MIC (Mycobacterium avium [8]; 7H9 Broth, Mycobacterium avium Smooth): 4 mg/L (≈ 3.32 µM)
MIC (Mycobacterium avium [8]; MH Broth, Mycobacterium avium Rough): > 64 mg/L
MIC (Mycobacterium avium [8]; MH Broth, Mycobacterium avium Smooth): 4 mg/L (≈ 3.32 µM)
MIC (Mycobacterium avium [8]; MH Culture Medium, Avium (standard strain)): 1 mg/L (≈ 0.831 µM)
MIC (Mycobacterium avium [8]; MH Culture Medium, clinically isolated strain Avium (S31)): 0.25 mg/L (≈ 0.208 µM)
MIC (Mycobacterium avium [8]; MH Culture Medium, clinically isolated strain Avium (S123)): 8 mg/L (≈ 6.65 µM)
MIC (Mycobacterium avium [8]; MH Culture Medium, clinically isolated strain Avium (S559)): 0.25 mg/L (≈ 0.208 µM)
MIC (Mycobacterium avium [8]; MH Culture Medium, clinically isolated strain Avium (S568)): 32 mg/L (≈ 26.6 µM)
MIC (Mycobacterium avium [8]; MH Culture Medium, clinically isolated strain Avium (S577)): 0.125 mg/L (≈ 0.104 µM)
MIC (Mycobacterium avium [8]; MH Culture Medium, clinically isolated strain Avium (S597)): > 64 mg/L
MIC (Mycobacterium avium [8]; MH Culture Medium, clinically isolated strain Avium (S602)): 8 mg/L (≈ 6.65 µM)
Compound: CO[C@H]1/C=C/O[C@@]2(C)Oc3c(C)c(O)c4c(O)c(c(/C=N/N5CCC(N(C)C6([C@@H]7CCN(c8c(F)cn9c(=O)c(C(=O)O)cc(C%10CC%10)c9c8C)C7)CC6)CC5)c(O)c4c3C2=O)NC(=O)/C(C)=C\C=C\[C@H](C)[C@H](O)[C@@H](C)[C@@H](O)[C@@H](C)[C@H](CC(C)=O)[C@@H]1C [Compound I]
Minimum Bactericidal Concentration (MBC) (Mycobacterium abscessus [1]; MH Culture Medium): 1 mg/L
MBC (Mycobacterium abscessus [1]; Mycobacteroides abscessus, 7H9 Culture Medium, read-out: Minimum Bactericidal Concentration (MBC)): 1 mg/L (≈ 0.831 µM)
activity, in words ([3]; against Mycobacterium intracellulare): weak
activity compared with controls, in words (Mycobacterium kansasii [4]; against mycobacterium kansasii): much higher than that of rifampicin, ciprofloxacin and metronidazole
MBC (Mycobacterium kansasii [6]; 7H9 Culture Medium): 2 mg/L (≈ 1.66 µM)
MBC (Mycobacterium kansasii [6]; MH Culture Medium): 2 mg/L (≈ 1.66 µM)
bactericidal activity (MBC) compared with controls, in words (Mycobacterium kansasii [6]; against mycobacterium kansasii): higher than or much higher than that of all other tested antibiotic drugs
MBC (Mycobacterium avium [7]; 7H9 Culture Medium, Mycobacterium avium Rough): > 64 mg/L
MBC (Mycobacterium avium [7]; 7H9 Culture Medium, Mycobacterium avium Smooth): 16 mg/L (≈ 13.3 µM)
MBC (Mycobacterium avium [7]; MH Culture Medium, Mycobacterium avium Rough): > 64 mg/L
MBC (Mycobacterium avium [7]; MH Culture Medium, Mycobacterium avium Smooth): 16 mg/L (≈ 13.3 µM)
bactericidal activity (MBC), in words (Mycobacterium avium [7]; against smooth type strain of Mycobacterium avium): had an activity
